{"source": "EPA's ToxRefDB 2", "key": {"rat [1]": {"tested_on": "rat", "settings": "Subchronic oral toxicity in rodents, wistar, Feed, dose end: 90 day, group: systemic"}, "rat [2]": {"tested_on": "rat", "settings": "Subchronic oral toxicity in rodents, fischer, Feed, dose end: 13 week, group: systemic"}, "rat [3]": {"tested_on": "rat", "settings": "Multigenerational reproductive toxicity study, sprague dawley, Oral, Feed, dose end: 2 generation"}, "rat [4]": {"tested_on": "rat", "settings": "Combined chronic toxicity/carcinogenicity, fischer, Oral, Feed, dose end: 24 month, group: systemic"}, "mouse [5]": {"tested_on": "mouse", "settings": "Sub-acute repeat dose toxicity, cd1, Oral, Feed, dose end: 4 week, group: systemic"}, "mouse [6]": {"tested_on": "mouse", "settings": "Carcinogenicity; cd1; Oral; Feed; dose end: 18 month; group: systemic; systemic / pathology gross / kidney / reduced size + systemic / pathology microscopic / kidney / inflammation + systemic / pathology …"}, "rat [7]": {"tested_on": "rat", "settings": "Multigenerational reproductive toxicity study, sprague dawley, Oral, Feed, dose end: 2 generation", "remark": "listed apart in the source"}, "[8]": {"settings": "systemic / pathology microscopic / kidney / inflammation + systemic / in life observation / mortality / mortality + systemic / pathology …"}, "[9]": {"settings": "group: offspring, developmental / offspring survival late / viability index / viability index"}, "[10]": {"settings": "group: offspring, developmental / offspring survival late / viability index / viability index + systemic / in life observation / body weight / offspring (pup…"}, "[11]": {"settings": "group: parental, systemic / organ weight / kidney / relative to body weight"}, "[12]": {"settings": "group: parental, systemic / organ weight / kidney / relative to body weight + systemic / organ weight / kidney / absolute + systemic / pathology gross / …"}, "[13]": {"settings": "systemic / in life observation / clinical signs / perineal soiling + systemic / organ weight / adrenal gland / relative to body weight + …"}, "[14]": {"settings": "systemic / pathology microscopic / kidney / degeneration"}, "[15]": {"settings": "systemic / pathology microscopic / kidney / degeneration + systemic / in life observation / body weight / body weight gain + systemic / in …"}, "[16]": {"settings": "group: parental, systemic / organ weight / kidney / absolute + systemic / organ weight / kidney / relative to body weight"}, "[17]": {"settings": "group: reproductive, reproductive / offspring survival early / dead fetuses / dead fetuses + reproductive / offspring survival early / litter size / litter size"}}, "data": [{"smiles": "Nc1c(Cl)c(F)nc(OCC(=O)O)c1Cl", "note": "[Fluroxypyr]", "values": [{"measurement": "LEL", "setting": "rat [1]; [8]", "value": 750, "unit": "mg/kg/day"}, {"measurement": "LOAEL", "setting": "rat [1]; [8]", "value": 750, "unit": "mg/kg/day"}, {"measurement": "NEL", "setting": "rat [1]; systemic / urinalysis / ph / ph + systemic / clinical chemistry / alanine aminotransferase (alt/sgpt) / alanine aminotransferase (alt/sgpt…", "value": 80, "unit": "mg/kg/day"}, {"measurement": "LEL", "setting": "rat [2]; systemic / hematology / hemoglobin (hgb) / hemoglobin (hgb) + systemic / urinalysis / specific gravity/osmolality / specific gravity/…", "value": 700, "unit": "mg/kg/day"}, {"measurement": "NEL", "setting": "rat [2]; systemic / in life observation / body weight / body weight gain + systemic / organ weight / testes / absolute + systemic / hematology / …", "value": 320, "unit": "mg/kg/day"}, {"measurement": "NOAEL", "setting": "rat [2]; systemic / organ weight / brain / absolute + systemic / hematology / erythrocyte (rbc) count differential / erythrocyte (rbc) + systemic / …", "value": 700, "unit": "mg/kg/day"}, {"measurement": "LOAEL", "setting": "rat [2]; systemic / organ weight / brain / absolute + systemic / in life observation / body weight / body weight gain + systemic / organ weight / …", "value": 1000, "unit": "mg/kg/day"}, {"measurement": "LEL", "setting": "rat [3]; [9]", "value": 500, "unit": "mg/kg/day"}, {"measurement": "LOAEL", "setting": "rat [3]; [9]", "value": 500, "unit": "mg/kg/day"}, {"measurement": "NEL", "setting": "rat [3]; [10]", "value": 100, "unit": "mg/kg/day"}, {"measurement": "NOAEL", "setting": "rat [3]; [10]", "value": 100, "unit": "mg/kg/day"}, {"measurement": "LEL", "setting": "rat [3]; [11]", "value": 100, "unit": "mg/kg/day"}, {"measurement": "NEL", "setting": "rat [3]; [11]", "value": "< 100", "unit": "mg/kg/day"}, {"measurement": "LOAEL", "setting": "rat [3]; [12]", "value": 500, "unit": "mg/kg/day"}, {"measurement": "NOAEL", "setting": "rat [3]; [12]", "value": 100, "unit": "mg/kg/day"}, {"measurement": "LEL", "setting": "rat [4]; [13]", "value": 100, "unit": "mg/kg/day"}, {"measurement": "NEL", "setting": "rat [4]; [13]", "value": "< 100", "unit": "mg/kg/day"}, {"measurement": "NOAEL", "setting": "rat [4]; [13]", "value": 100, "unit": "mg/kg/day"}, {"measurement": "LOAEL", "setting": "rat [4]; systemic / organ weight / kidney / relative to body weight + systemic / pathology microscopic / kidney / nephropathy + systemic / organ …", "value": 500, "unit": "mg/kg/day"}, {"measurement": "LEL", "setting": "mouse [5]; [14]", "value": 132, "unit": "mg/kg/day"}, {"measurement": "LOAEL", "setting": "mouse [5]; [14]", "value": 132, "unit": "mg/kg/day"}, {"measurement": "NEL", "setting": "mouse [5]; [15]", "value": 14, "unit": "mg/kg/day"}, {"measurement": "NOAEL", "setting": "mouse [5]; [15]", "value": 14, "unit": "mg/kg/day"}, {"measurement": "LEL", "setting": "mouse [6]", "value": 1000, "unit": "mg/kg/day"}, {"measurement": "LOAEL", "setting": "mouse [6]", "value": 1000, "unit": "mg/kg/day"}, {"measurement": "NEL", "setting": "mouse [6]", "value": 300, "unit": "mg/kg/day"}, {"measurement": "NOAEL", "setting": "mouse [6]", "value": 300, "unit": "mg/kg/day"}, {"measurement": "LEL", "setting": "rat [7]; group: offspring, developmental / developmental malformation / general / runts", "value": 500, "unit": "mg/kg/day"}, {"measurement": "NEL", "setting": "rat [7]; group: offspring, developmental / developmental malformation / general / runts + developmental / developmental malformation / eye / anophthalmia + …", "value": 100, "unit": "mg/kg/day"}, {"measurement": "NOAEL", "setting": "rat [7]; group: offspring, developmental / developmental malformation / general / runts + systemic / in life observation / body weight / offspring (pup) weight gain + …", "value": 500, "unit": "mg/kg/day"}, {"measurement": "LOAEL", "setting": "rat [7]; group: offspring, systemic / in life observation / body weight / offspring (pup) weight gain + systemic / in life observation / body weight / offspring (pup) …", "value": 750, "unit": "mg/kg/day"}, {"measurement": "NOAEL", "setting": "rat [7]; group: parental, systemic / organ weight / kidney / absolute + systemic / in life observation / body weight / body weight + systemic / in life observation / …", "value": 100, "unit": "mg/kg/day"}, {"measurement": "LEL", "setting": "rat [7]; [16]", "value": 100, "unit": "mg/kg/day"}, {"measurement": "NEL", "setting": "rat [7]; [16]", "value": "< 100", "unit": "mg/kg/day"}, {"measurement": "LOAEL", "setting": "rat [7]; group: parental, systemic / organ weight / kidney / absolute + systemic / organ weight / kidney / relative to body weight + systemic / pathology microscopic…", "value": 500, "unit": "mg/kg/day"}, {"measurement": "LEL", "setting": "rat [7]; [17]", "value": 750, "unit": "mg/kg/day"}, {"measurement": "LOAEL", "setting": "rat [7]; [17]", "value": 750, "unit": "mg/kg/day"}, {"measurement": "NEL", "setting": "rat [7]; [17]", "value": 500, "unit": "mg/kg/day"}, {"measurement": "NOAEL", "setting": "rat [7]; [17]", "value": 500, "unit": "mg/kg/day"}]}]}
